# Test results reported in patent publication US12559492B2, “BRAF degraders” (C4 Therapeutics, Inc., priority 2020, dated 2026).
# Target: BRAF^V600E protein (Homo sapiens, UniProt P15056, V600E)
# Experiment: HiBiT cellular BRAF V600E degradation assay
# Type: cell-based
# Conditions: 24 h incubation; for DC50: A375.10 cells (HiBiT tag knocked in at N-terminal of BRAF V600E), concentration at which 50% of total cellular BRAF V600E is degraded; for Emax: read-out: HiBit 24 h Emax
# [1] = A375.10 cells, Emax = amount of residual protein remaining in the cell after compound treatment
# BRAF^V600E protein, sequence (P15056 whole entry V600E): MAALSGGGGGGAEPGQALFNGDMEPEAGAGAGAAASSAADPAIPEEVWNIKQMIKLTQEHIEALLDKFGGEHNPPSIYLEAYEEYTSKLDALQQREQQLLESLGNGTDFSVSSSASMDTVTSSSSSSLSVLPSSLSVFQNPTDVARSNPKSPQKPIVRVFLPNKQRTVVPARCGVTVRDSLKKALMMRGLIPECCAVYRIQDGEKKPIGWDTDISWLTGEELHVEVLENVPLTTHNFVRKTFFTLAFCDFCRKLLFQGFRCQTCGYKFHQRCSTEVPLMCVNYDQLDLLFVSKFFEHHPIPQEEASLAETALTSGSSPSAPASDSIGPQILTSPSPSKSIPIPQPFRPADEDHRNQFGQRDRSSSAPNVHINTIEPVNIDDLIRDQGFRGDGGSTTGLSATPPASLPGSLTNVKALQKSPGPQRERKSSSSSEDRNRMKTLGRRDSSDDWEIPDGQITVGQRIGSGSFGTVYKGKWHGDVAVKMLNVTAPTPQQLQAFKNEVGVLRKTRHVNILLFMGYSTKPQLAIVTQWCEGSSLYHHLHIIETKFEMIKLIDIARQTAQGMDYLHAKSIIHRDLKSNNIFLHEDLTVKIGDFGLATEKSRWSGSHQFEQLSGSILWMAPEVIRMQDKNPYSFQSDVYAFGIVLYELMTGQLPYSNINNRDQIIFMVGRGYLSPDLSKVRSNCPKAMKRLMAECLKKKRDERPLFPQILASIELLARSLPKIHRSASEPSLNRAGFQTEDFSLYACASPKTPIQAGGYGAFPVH
Compound,DC50 [nM],HiBit 24 h Emax [1] [%],Emax [1] [%]
"CCN(C)S(=O)(=O)Nc1ccc(F)c(C(=O)c2c[nH]c3ncc(-c4ccc(CN5CCN(C(=O)CN6CCN(c7cccc(NC8CCC(=O)NC8=O)c7)CC6)CC5)cc4)cc23)c1F (stereo not drawn) [Example A25, 5-[4-[[4-[2-[4-[3-[(2,6-Dioxopiperidin-3-yl)amino]phenyl]piperazin-1-yl]acetyl]piperazin-1-yl]methyl]phenyl]-3-[3-[[ethyl(methyl)sulfamoyl]amino]-2,6-difluorobenzoyl]-1H-pyrrolo[2,3-b]pyridine; 2,2,2-trifluoroacetic acid]",101,,18
"O=C1CCC(Oc2ccc(C3CCN(C(=O)NC4CCN(Cc5ccc(-c6cnc7[nH]cc(C(=O)c8c(F)ccc(NS(=O)(=O)N9CCCC9)c8F)c7c6)cc5)CC4)CC3)cc2)C(=O)N1 (stereo not drawn) [Example A27, N-[1-[[4-[3-[2,6-Difluoro-3-(pyrrolidin-1-ylsulfonylamino)benzoyl]-1H-pyrrolo[2,3-b]pyridin-5-yl]phenyl]methyl]piperidin-4-yl]-4-[4-(2,6-dioxopiperidin-3-yl)oxyphenyl]piperidine-1-carboxamide; formic acid]",104,,30
"CCC(C)S(=O)(=O)Nc1ccc(F)c(C(=O)c2c[nH]c3ncc(-c4ccc(N5CCN(C(=O)CN6CCC(c7ccc(OC8CCC(=O)NC8=O)cc7)CC6)CC5)nc4)cc23)c1F (stereo not drawn) [Example A28, N-[3-[5-[6-[4-[2-[4-[4-(2,6-Dioxopiperidin-3-yl)oxyphenyl]piperidin-1-yl]acetyl]piperazin-1-yl]pyridin-3-yl]-1H-pyrrolo[2,3-b]pyridine-3-carbonyl]-2,4-difluorophenyl]butane-2-sulfonamide]",12,,14
"CCN(C)S(=O)(=O)Nc1ccc(F)c(C(=O)c2c[nH]c3ncc(-c4ccc(N5CCN(C(=O)CCN6CCC(c7ccc(OC8CCC(=O)NC8=O)cc7)CC6)CC5)nc4)cc23)c1F (stereo not drawn) [Example A35, 5-[6-[4-[3-[4-[4-(2,6-Dioxopiperidin-3-yl)oxyphenyl]piperidin-1-yl]propanoyl]piperazin-1-yl]pyridin-3-yl]-3-[3-[[ethyl(methyl)sulfamoyl]amino]-2,6-difluorobenzoyl]-1H-pyrrolo[2,3-b]pyridine]",54,,21
"CCN(C)S(=O)(=O)Nc1ccc(F)c(C(=O)c2c[nH]c3ncc(-c4ccc(N5CCN(C(=O)CN6CCC(c7ccc(NC8CCC(=O)NC8=O)cc7)CC6)CC5)cc4)cc23)c1F (stereo not drawn) [Example A36, 5-[4-[4-[2-[4-[4-[(2,6-Dioxopiperidin-3-yl)amino]phenyl]piperidin-1-yl]acetyl]piperazin-1-yl]phenyl]-3-[3-[[ethyl(methyl)sulfamoyl]amino]-2,6-difluorobenzoyl]-1H-pyrrolo[2,3-b]pyridine]",3,,10
"CCN(C)S(=O)(=O)Nc1ccc(F)c(C(=O)c2c[nH]c3ncc(-c4ccc(CN5CCN(C(=O)CN6Cc7ccc(NC8CCC(=O)NC8=O)cc7C6)CC5)nc4)cc23)c1F (stereo not drawn) [Example A38, 5-[6-[[4-[2-[5-[(2,6-Dioxopiperidin-3-yl)amino]-1,3-dihydroisoindol-2-yl]acetyl]piperazin-1-yl]methyl]pyridin-3-yl]-3-[3-[[ethyl(methyl)sulfamoyl]amino]-2,6-difluorobenzoyl]-1H-pyrrolo[2,3-b]pyridine]",47,,20
"CCN(C)S(=O)(=O)Nc1ccc(F)c(C(=O)c2c[nH]c3ncc(-c4cnc(N5CCC(NC(=O)N6CCC(c7ccc(NC8CCC(=O)NC8=O)cn7)CC6)CC5)nc4)cc23)c1F (stereo not drawn) [Example A40, 4-[5-[(2,6-Dioxopiperidin-3-yl)amino]pyridin-2-yl]-N-[1-[5-[3-[3-[[ethyl(methyl)sulfamoyl]amino]-2,6-difluorobenzoyl]-1H-pyrrolo[2,3-b]pyridin-5-yl]pyrimidin-2-yl]piperidin-4-yl]piperidine-1-carboxamide;formic acid]",8,,17
"CCN(C)S(=O)(=O)Nc1ccc(F)c(C(=O)c2c[nH]c3ncc(C#CC4CCN(C(=O)CN5CCC(c6ccc(NC7CCC(=O)NC7=O)cc6)CC5)CC4)cc23)c1F (stereo not drawn) [Example A43, 5-[2-[1-[2-[4-[4-[(2,6-Dioxopiperidin-3-yl)amino]phenyl]piperidin-1-yl]acetyl]piperidin-4-yl]ethynyl]-3-[3-[[ethyl(methyl)sulfamoyl]amino]-2,6-difluorobenzoyl]-1H-pyrrolo[2,3-b]pyridine]",57,,32

# Continued by falling DC50, values first:
DC50 [nM],HiBit 24 h Emax [1] [%],Emax [1] [%],Compound
166,,19,"CCN(C)S(=O)(=O)Nc1ccc(F)c(C(=O)c2c[nH]c3ncc(-c4ccc(CN5CCN(C(=O)CCCN6CCC(c7ccc(NC8CCC(=O)NC8=O)cc7)CC6)CC5)cc4)cc23)c1F (stereo not drawn) [Example A26, 5-[4-[[4-[4-[4-[4-[(2,6-Dioxopiperidin-3-yl)amino]phenyl]piperidin-1-yl]butanoyl]piperazin-1-yl]methyl]phenyl]-3-[3-[[ethyl(methyl)sulfamoyl]amino]-2,6-difluorobenzoyl]-1H-pyrrolo[2,3-b]pyridine; 2,2,2-trifluoroacetic acid]"
79,,25,"CCN(C)S(=O)(=O)Nc1ccc(F)c(C(=O)c2c[nH]c3ncc(-c4cnc(N5CCC(NC(=O)N6CCC(c7ccc(NC8CCC(=O)NC8=O)cc7)CC6)CC5)nc4)cc23)c1F (stereo not drawn) [Example A34, 4-[4-[(2,6-Dioxopiperidin-3-yl)amino]phenyl]-N-[1-[5-[3-[3-[[ethyl(methyl)sulfamoyl]amino]-2,6-difluorobenzoyl]-1H-pyrrolo[2,3-b]pyridin-5-yl]pyrimidin-2-yl]piperidin-4-yl]piperidine-1-carboxamide;formic acid]"
53,,13,"CCN(C)S(=O)(=O)Nc1ccc(F)c(C(=O)c2c[nH]c3ncc(-c4ccc(OC5CCN(C(=O)CN6CCC(c7ccc(OC8CCC(=O)NC8=O)cc7)CC6)CC5)cc4)cc23)c1F (stereo not drawn) [Example A30, 5-[4-[1-[2-[4-[4-(2,6-Dioxopiperidin-3-yl)oxyphenyl]piperidin-1-yl]acetyl]piperidin-4-yl]oxyphenyl]-3-[3-[[ethyl(methyl)sulfamoyl]amino]-2,6-difluorobenzoyl]-1H-pyrrolo[2,3-b]pyridine]"
39,,15,"O=C1CCC(Oc2ccc(C3CCN(CC(=O)N4CCN(c5ccc(-c6cnc7[nH]cc(C(=O)c8c(F)ccc(NS(=O)(=O)C9CCCCC9)c8F)c7c6)cn5)CC4)CC3)cc2)C(=O)N1 (stereo not drawn) [Example A32, N-[3-[5-[6-[4-[2-[4-[4-(2,6-Dioxopiperidin-3-yl)oxyphenyl]piperidin-1-yl]acetyl]piperazin-1-yl]pyridin-3-yl]-1H-pyrrolo[2,3-b]pyridine-3-carbonyl]-2,4-difluorophenyl]cyclohexanesulfonamide]"
35,,18,"CCN(C)S(=O)(=O)Nc1ccc(F)c(C(=O)c2c[nH]c3ncc(-c4ccc(N5CCN(C(=O)CN(C)C(=O)Cc6ccc(NC7CCC(=O)NC7=O)cc6)CC5)nc4)cc23)c1F (stereo not drawn) [Example A39, 2-[4-[(2,6-dioxopiperidin-3-yl)amino]phenyl]-N-[2-[4-[5-[3-[3-[[ethyl(methyl)sulfamoyl]amino]-2,6-difluorobenzoyl]-1H-pyrrolo[2,3-b]pyridin-5-yl]pyridin-2-yl]piperazin-1-yl]-2-oxoethyl]-N-methylacetamide]"
34,,13,"O=C1CCC(Nc2ccc(C3CCN(CC(=O)N4CCN(c5ccc(-c6cnc7[nH]cc(C(=O)c8c(F)ccc(NS(=O)(=O)C9CCCCC9)c8F)c7c6)cn5)CC4)CC3)cc2)C(=O)N1 (stereo not drawn) [Example A33, N-[3-[5-[6-[4-[2-[4-[4-[(2,6-Dioxopiperidin-3-yl)amino]phenyl]piperidin-1-yl]acetyl]piperazin-1-yl]pyridin-3-yl]-1H-pyrrolo[2,3-b]pyridine-3-carbonyl]-2,4-difluorophenyl]cyclohexanesulfonamide]"
30,13,,"CCN(C)S(=O)(=O)Nc1ccc(F)c(C(=O)c2c[nH]c3ncc(-c4ccc(CN5CCN(C(=O)CN6CCN(c7ccc(NC8CCC(=O)NC8=O)cc7)CC6)CC5)cc4)cc23)c1F.O=C(O)C(F)(F)F (stereo not drawn) [Example A24, 5-[4-[[4-[2-[4-[4-[(2,6-Dioxopiperidin-3-yl)amino]phenyl]piperazin-1-yl]acetyl]piperazin-1-yl]methyl]phenyl]-3-[3-[[ethyl(methyl)sulfamoyl]amino]-2,6-difluorobenzoyl]-1H-pyrrolo[2,3-b]pyridine; 2,2,2-trifluoroacetic acid]"
15,,12,"CCN(C)S(=O)(=O)Nc1ccc(F)c(C(=O)c2c[nH]c3ncc(-c4ccc(OC5CCN(C(=O)CN6CCC(c7ccc(NC8CCC(=O)NC8=O)cc7)CC6)CC5)cc4)cc23)c1F (stereo not drawn) [Example A31, 5-[4-[1-[2-[4-[4-[(2,6-dioxopiperidin-3-yl)amino]phenyl]piperidin-1-yl]acetyl]piperidin-4-yl]oxyphenyl]-3-[3-[[ethyl(methyl)sulfamoyl]amino]-2,6-difluorobenzoyl]-1H-pyrrolo[2,3-b]pyridine]"
14.6,,20.6,"CCN(C)S(=O)(=O)Nc1ccc(F)c(C(=O)c2c[nH]c3ncc(-c4ccc(N5CCN(C(=O)CN6Cc7ccc(NC8CCC(=O)NC8=O)cc7C6)CC5)nc4)cc23)c1F (stereo not drawn) [Example A37, 5-[6-[4-[2-[5-[(2,6-Dioxopiperidin-3-yl)amino]-1,3-dihydroisoindol-2-yl]acetyl]piperazin-1-yl]pyridin-3-yl]-3-[3-[[ethyl(methyl)sulfamoyl]amino]-2,6-difluorobenzoyl]-1H-pyrrolo[2,3-b]pyridine]"
3.05,,10.9,"CCC(C)S(=O)(=O)Nc1ccc(F)c(C(=O)c2c[nH]c3ncc(-c4ccc(N5CCN(C(=O)CN6CCC(c7ccc(NC8CCC(=O)NC8=O)cc7)CC6)CC5)nc4)cc23)c1F (stereo not drawn) [Example A29, N-[3-[5-[6-[4-[2-[4-[4-[(2,6-Dioxopiperidin-3-yl)amino]phenyl]piperidin-1-yl]acetyl]piperazin-1-yl]pyridin-3-yl]-1H-pyrrolo[2,3-b]pyridine-3-carbonyl]-2,4-difluorophenyl]butane-2-sulfonamide]"
